The text below walks through data of patent publication US5352591A, “Aldolase enzyme process for making 5-azido-5-deoxy-hexulose-1-phosphate” (The Scripps Research Institute, priority 1993, dated 1994).

A word on the Ki: it is the dissociation constant of the complex between target and ligand, obtained from inhibition or displacement.

Entries after “also recorded” stand apart in the source; their conditions may differ. Read-outs that look alike come from different tables or passages of the source.

For assay [1], the target named is T1, α-Mannosidase (jack bean) (Canavalia ensiformis, UniProt C0HJB3).
T1 construct: purchased Sigma
T1 sequence (C0HJB3 1-562 limits assumed): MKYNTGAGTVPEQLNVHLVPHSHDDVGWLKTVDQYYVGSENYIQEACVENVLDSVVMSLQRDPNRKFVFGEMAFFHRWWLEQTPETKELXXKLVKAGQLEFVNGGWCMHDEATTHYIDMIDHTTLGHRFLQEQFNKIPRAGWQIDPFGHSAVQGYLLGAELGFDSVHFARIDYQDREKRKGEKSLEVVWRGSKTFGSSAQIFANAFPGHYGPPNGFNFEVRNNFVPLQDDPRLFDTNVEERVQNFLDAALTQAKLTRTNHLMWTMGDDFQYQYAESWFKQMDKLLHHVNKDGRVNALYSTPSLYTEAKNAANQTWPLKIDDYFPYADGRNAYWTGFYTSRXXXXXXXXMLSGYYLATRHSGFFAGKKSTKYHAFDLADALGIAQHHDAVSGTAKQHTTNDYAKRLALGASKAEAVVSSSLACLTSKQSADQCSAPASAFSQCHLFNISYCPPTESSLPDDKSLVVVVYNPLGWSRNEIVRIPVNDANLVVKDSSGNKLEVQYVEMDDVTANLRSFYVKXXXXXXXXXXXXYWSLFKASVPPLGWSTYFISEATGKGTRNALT
T1 sequence (C0HJB3 563-981 limits assumed): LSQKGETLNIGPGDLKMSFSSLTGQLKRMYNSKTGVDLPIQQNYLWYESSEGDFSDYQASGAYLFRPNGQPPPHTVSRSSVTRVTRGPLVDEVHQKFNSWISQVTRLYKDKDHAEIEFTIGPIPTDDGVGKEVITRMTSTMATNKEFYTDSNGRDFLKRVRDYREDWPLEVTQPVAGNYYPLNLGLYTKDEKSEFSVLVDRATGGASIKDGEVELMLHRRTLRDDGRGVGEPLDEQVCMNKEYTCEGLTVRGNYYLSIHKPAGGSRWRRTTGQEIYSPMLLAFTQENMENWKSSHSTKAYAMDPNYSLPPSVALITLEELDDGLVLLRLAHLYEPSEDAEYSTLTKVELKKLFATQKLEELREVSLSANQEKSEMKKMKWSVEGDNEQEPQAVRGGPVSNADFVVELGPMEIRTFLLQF
Description: Inhibition of α-mannosidase. In kind it is biochemical. The protocol: (§1) The following solutions were prepared for enzymatic assay:
4. α-D-Mannosidase: 5 milligrams of solid protein were suspended in I mL of 3M ammonium sulfate [(NH4)2 SO4 ] and 0.1M zinc acetate (ZnOAc).
(§2) The following illustrates the procedure in detail.

Assay [2] addresses T2, α-Glucosidase (brewer yeast) (Saccharomyces cerevisiae, UniProt P53341).
T2 construct: purchased Sigma
Description: Inhibition of α-glucosidase (Lineweaver-Burk, p-nitrophenol release). In kind it is biochemical. The following applies: pH 6.5. The protocol:
The following solutions were prepared for enzymatic assay: 1. […] The following illustrates the procedure in detail.

In assay [3] the target is T3, β-Galactosidase (E. coli) (Escherichia coli, UniProt P00722).
T3 construct: purchased Sigma
Description: Inhibition of β-galactosidase. In kind it is biochemical. To be noted: at 1 mM; pH 6.5. The protocol:
as §1
6. β-D-Galactosidase: 0.5 milligrams of solid protein (345 Units/milligram) were dissolved in 1 mL PIPES-NaOAc buffer solution.
as §2

The target of assay [4] is β-Glucosidase (almond). Description: Inhibition of β-glucosidase. In kind it is biochemical. The following applies: pH 6.5. The protocol:
The following solutions were prepared for enzymatic assay: 1. […] The assay enzyme solution was prepared by dissolving 20 milligrams of solid protein (4.8 Units/milligram solid) in 6 mL PIPES-NaOAc buffer solution. […] The following illustrates the procedure in detail.

Assay [5] concerns the target β-Xylosidase (A. niger) (Aspergillus niger, UniProt O00089). The following applies: from Fleet et al. 1985; cited from earlier work.
Assay [6] concerns the target T1, α-Mannosidase (jack bean). To be noted: from Fleet et al. 1985; cited from earlier work.
Assay [7] concerns glycosidases. To be noted: Fleet et al., Tetrahedron Lett. 1985, 26, 3127; cited from earlier work.
The target in assay [8] is β-Glucosidase (almond). To be noted: from Fleet et al. 1985; cited from earlier work.
Assay [9] deals with T3, β-Galactosidase (E. coli). The following applies: from Fleet et al. 1985; cited from earlier work.
Assay [10] deals with T2, α-Glucosidase (brewer yeast). The following applies: from Fleet et al., Tetrahedron Lett., 1985, 26:3127; cited from earlier work.
Assay [11] has as its target T4, α-L-Fucosidase (Homo sapiens, UniProt P04066).
T4 sequence (P04066 32-466): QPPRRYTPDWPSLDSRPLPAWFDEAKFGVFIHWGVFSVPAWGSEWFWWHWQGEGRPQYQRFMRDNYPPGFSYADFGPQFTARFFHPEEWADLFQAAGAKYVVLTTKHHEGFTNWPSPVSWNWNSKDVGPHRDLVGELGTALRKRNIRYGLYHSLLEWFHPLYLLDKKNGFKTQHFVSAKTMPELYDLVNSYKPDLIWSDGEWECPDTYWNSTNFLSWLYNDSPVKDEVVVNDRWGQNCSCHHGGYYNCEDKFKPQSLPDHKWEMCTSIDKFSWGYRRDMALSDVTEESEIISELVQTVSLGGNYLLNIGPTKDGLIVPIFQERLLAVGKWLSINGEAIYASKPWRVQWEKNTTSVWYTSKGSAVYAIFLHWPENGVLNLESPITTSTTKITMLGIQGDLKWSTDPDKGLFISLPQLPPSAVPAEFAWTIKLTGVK
Description: α-L-Fucosidase inhibition (fuc-pNP hydrolysis). In kind it is biochemical. The protocol:
α-L-Fucosidase activity was measured by incubating the enzyme (0.005 Units) with fuc-pNP ([…]) in 0.4 ml of 50 mM acetate buffer, pH 5.5 for 20 minutes at 25° C. in the absence and presence of the azasugars of the present invention. The reaction was stopped by the addition of 0.8 ml of 2 mM glycine buffer, pH 10.5. The amount of formed p-nitrophenol was determined by optical density spectroscopy at a wavelength of 400 nm.

The subject of assay [12] is AIDS virus gp160 envelope protein precursor. The following applies: Walker et al., Proc. Natl. Acad. Sci. 1987; cited from earlier work.

T3 sequence (P00722 2-1024 limits assumed): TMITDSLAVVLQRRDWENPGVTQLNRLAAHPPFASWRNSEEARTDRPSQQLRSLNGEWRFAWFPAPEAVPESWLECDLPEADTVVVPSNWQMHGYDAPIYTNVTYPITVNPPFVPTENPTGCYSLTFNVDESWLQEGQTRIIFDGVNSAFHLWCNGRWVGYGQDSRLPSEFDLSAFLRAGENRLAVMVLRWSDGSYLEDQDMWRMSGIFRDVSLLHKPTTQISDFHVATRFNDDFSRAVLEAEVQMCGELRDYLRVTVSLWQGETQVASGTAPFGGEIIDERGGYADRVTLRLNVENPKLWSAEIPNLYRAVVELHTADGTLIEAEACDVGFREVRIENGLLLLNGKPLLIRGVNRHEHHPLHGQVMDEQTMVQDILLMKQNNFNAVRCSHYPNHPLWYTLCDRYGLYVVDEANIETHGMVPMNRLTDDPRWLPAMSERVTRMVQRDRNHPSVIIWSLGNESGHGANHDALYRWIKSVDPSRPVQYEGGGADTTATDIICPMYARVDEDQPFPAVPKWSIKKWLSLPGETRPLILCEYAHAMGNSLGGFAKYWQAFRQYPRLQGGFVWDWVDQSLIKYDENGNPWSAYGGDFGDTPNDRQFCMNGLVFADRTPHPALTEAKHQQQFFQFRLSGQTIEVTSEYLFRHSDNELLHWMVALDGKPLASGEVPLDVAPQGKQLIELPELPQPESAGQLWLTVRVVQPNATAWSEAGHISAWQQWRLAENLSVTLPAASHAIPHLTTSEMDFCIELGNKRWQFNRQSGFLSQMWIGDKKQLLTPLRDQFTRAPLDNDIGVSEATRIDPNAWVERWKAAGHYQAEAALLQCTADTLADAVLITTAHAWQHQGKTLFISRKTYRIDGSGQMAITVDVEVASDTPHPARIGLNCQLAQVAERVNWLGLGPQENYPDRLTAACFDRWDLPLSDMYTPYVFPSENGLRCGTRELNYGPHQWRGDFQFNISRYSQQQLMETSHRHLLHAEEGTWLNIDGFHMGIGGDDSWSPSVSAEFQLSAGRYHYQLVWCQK
T2 sequence (P53341 whole entry): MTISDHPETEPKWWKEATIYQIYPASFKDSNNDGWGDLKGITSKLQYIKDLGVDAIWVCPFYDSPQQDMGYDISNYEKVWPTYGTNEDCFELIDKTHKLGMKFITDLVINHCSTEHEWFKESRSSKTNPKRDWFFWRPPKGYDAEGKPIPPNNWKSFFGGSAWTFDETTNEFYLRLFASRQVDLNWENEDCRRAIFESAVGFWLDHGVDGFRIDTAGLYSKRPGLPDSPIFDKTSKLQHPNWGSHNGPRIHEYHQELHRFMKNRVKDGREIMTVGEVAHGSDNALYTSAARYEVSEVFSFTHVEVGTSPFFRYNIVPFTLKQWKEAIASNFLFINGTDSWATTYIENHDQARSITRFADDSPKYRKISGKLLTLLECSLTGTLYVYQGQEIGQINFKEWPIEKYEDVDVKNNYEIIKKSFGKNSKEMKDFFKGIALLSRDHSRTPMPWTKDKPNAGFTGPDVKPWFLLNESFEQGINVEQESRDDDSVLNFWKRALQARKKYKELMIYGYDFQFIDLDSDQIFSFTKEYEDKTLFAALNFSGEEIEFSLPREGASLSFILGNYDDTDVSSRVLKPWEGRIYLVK
Sequence of β-Xylosidase (A. niger) (O00089 27-804): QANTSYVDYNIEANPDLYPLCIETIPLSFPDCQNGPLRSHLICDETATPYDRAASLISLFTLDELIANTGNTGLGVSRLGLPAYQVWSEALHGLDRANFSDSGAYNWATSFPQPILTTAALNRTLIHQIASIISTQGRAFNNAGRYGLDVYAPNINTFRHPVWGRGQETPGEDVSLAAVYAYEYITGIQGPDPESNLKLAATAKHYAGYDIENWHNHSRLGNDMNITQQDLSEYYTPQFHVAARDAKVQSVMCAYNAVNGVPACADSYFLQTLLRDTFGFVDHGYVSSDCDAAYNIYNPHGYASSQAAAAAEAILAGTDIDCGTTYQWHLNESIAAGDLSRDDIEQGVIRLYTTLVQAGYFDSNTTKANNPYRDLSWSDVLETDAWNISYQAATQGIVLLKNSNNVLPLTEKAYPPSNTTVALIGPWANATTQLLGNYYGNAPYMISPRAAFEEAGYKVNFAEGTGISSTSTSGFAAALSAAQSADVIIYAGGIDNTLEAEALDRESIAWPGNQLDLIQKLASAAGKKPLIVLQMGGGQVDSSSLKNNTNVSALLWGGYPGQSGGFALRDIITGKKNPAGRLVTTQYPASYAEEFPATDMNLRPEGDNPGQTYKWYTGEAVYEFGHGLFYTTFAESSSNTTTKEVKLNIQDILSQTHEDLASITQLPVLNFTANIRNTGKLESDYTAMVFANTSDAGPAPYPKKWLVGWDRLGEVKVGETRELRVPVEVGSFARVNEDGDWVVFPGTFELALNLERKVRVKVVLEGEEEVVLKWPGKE

In the case of `OC[C@@H]1N[C@H](CO)[C@@H](O)[C@@H]1O` [Compound 2, (2R,5S)-dihydroxymethyl-(3R,4R)-dihydroxypyrrolidine], the “inhibition of an α-mannosidase (in words)” value in assay [1] is on record as “significant inhibition”. The inhibition constant (Ki) came to 3.1 mM in assay [1] (pH 6.5), 2800 nM in assay [2] and 19 µM in assay [4]. The “Ki Values, β-Galactosidase (E. coli)” value in assay [3] is “No inhibition”.
Turning to `OC[C@H]1N[C@H](CO)[C@@H](O)[C@@H]1O` [Compound X, (2R,5R)-dihydroxymethyl-(3R,4R)-dihydroxypyrrolidine], the values for the Ki in assay [5], in assay [8] and in [10] were 250 µM, 7.8 µM and 3.3 µM, respectively. Besides, the “Ki Values, α-Mannosidase (jack bean)” value in assay [6] is “no inhibitory activity; also recorded: no inhibition”. In [7], the “inhibition against glycosidases, including α- and β-glucosidases and β-xylosidase (in words)” value is reported as “broad spectrum of inhibition”. The “Ki Values, β-Galactosidase (E. coli)” value in [9] is recorded as “No inhibition”.
Take `C[C@@H]1OC(O)[C@@H](O)[C@H](O)[C@@H]1O` (stereo partly drawn) [L-fucose]: in assay [11] (versus fuc-pNP), the “type of inhibition of fucosidase” value is recorded as “competitive inhibitor”. In assay [11] (versus fuc-pNP, 50 mM acetate buffer pH 5.5, 25° C., read-out: Ki, α-L-Fucosidase inhibition), the Ki was 300 µM.
For `OC1CN2CCC(O)C2C(O)C1O` (stereo not shown) [castanospermine, 1,6,7,8tetrahydroxyoctahydroindolizine], in [12], the “inhibition of processing of the AIDS virus gp160 envelope protein precursor (in words)” value is “inhibit the processing”.
`Oc1ccccc1` [phenol] registered a Ki in [11] of 180 ± 20 µM. In addition, the “type of inhibition of fucosidase” value in assay [11] (versus fuc-pNP) was “noncompetitive inhibitor”.
